From patent US20260335323A1, “CHIMERIC MOLECULE” (UCL Business Ltd, priority 2023, published 2026)

Assays:
SH-SY5Y cells = assay: mito-mKeima mitophagy assay (mitophagy index); type: cell-based, human; conditions: mitochondrial toxin treatment
Description: FIG. 1. The structure of AUTAC-4 is shown in (A). (B) Representative images of SH-SY5Y cells stably expressing the mito-mKeima reporter treated with AUTAC4 for 18 h. Nuclei were stained with Hoechst 33342, healthy mitochondria are shown in green and mitochondria in lysosomes are shown in red. (C-E) Fold change in mitophagy index over time after treatment with increasing concentrations of AUTAC4 under treatment with DMSO (C), 3 mM CCCP (D) or 0.1/0.1 mM antimycin/oligomycin (E), also for 18 h. (F) Quantification of changes in mitochondrial membrane potential over time (DYm) by measuring the TMRM relative fluorescence intensity (RFI) treated with DMSO, 10 mM CCCP, 10 mM and 20 mM AUTAC4. Normalised to number of nuclei. (G) Representative western blot of SH-SY5Y cells treated with DMSO, 10 mM AUTAC4 or 10 mM AUTAC4+0.1/0.1 mM antimycin/oligomycin for 18 h and, probed for p62, b-actin and Tom20. Quantifications of western blot for changes in Tom20 and p62 levels shown in (H) and (I), respectively. (J) Representative images of PANC-1 cells stably expressing the mCherry-EGFP-LC3 tandem reporter. Nuclei stained with Hoechst 33342, autophagosomes are shown in the EGFP channel and autolysosomes in the mCherry channel. Fold change in the number of autophagosome (K) and autolysosome (L) puncta in AUTAC4 treated cells. All data shown are mean±SEM, n=3, *p<0.05, *** p<0.001. For mito-mKeima experiments, statistics were calculated by Two-way ANOVA with Tukey's multiple comparisons test. For western blots, TMRM and LC3 tandem reporter assay, statistics were calculated with one-way ANOVA with Tukey's multiple comparisons test.
(§1) FIG. 5. ULKTACs induce potent mitophagy after colocalisation and local activation of ULK1 at mitochondria (A) Representative immunofluorescence of PANC-1 cells treated with CCCP, ULKTACs or both and immunostained for TOM20 and ULK1 and counterstained with Alexa 488 and 568, respectively. Nuclei stained with Hoechst 33342. (B) Quantification of the colocalised ULK1 to TOM20 spot area of PANC-1 cells treated with DMSO, 5 mM CCCP, 10 mM BL-918, 10 mM BL-918+5 mM CCCP, […] NZ-65, […] NZ-65+5 mM CCCP, […] NZ-66, […] NZ-66+5 mM CCCP, 50 mM TSPO ligand, […] NZ-65+50 mM TSPO ligand, […] NZ-66+50 mM TSPO ligand. (C) Western blot of SH-SY5Y cells treated with 1 mM ULKTACs, 5 mM CCCP or both, probed for Mfn2, b-Actin and Tom20—quantifications are shown in (D) for Mfn2, normalised to Actin. (E) Representative images of SH-SY5Y cells stably expressing the mito-mKeima reporter treated with 3 mM CCCP, NZ-65 or both. Nuclei were stained with Hoechst 33342, healthy mitochondria are shown in green and mitochondria in lysosomes are shown in red. Fold change in mitophagy index over time after treatment for the indicated timepoints with title treatments alone or co-treated with 1.25 mM ULKTAC or 10 mM ULKTAC NZ-65 (F) or NZ-66 (G). Fold change in mitophagy index over time after treatment for the indicated timepoints with DMSO, 1.25 µM NZ-65 or NZ-66±50 µM TSPO ligand under co-treatment with DMSO (H) or 3 μM CCCP (I). […] Normalised to number of nuclei. All data shown are mean±SEM, n=3, *p<0.05, ** p<0.01, *** p<0.001. For colocalisation and TMRM experiments, one-way ANOVA with Dunnett's multiple comparisons test. For western blots, one-way ANOVA with Tukey's multiple comparisons test and unpaired t-test. For mito-mKeima experiment, two-way ANOVA with Tukey's multiple comparisons test.
SH-SY5Y stably expressing mito-mKeima were produced as previously described28,29. Cells were seeded in 384 well CellCarrier Ultra plates (PerkinElmer) 24 hours before treatment in complete media without phenol red. Cells were treated with increasing concentrations of BL-918, AUTAC4, NZ-65 or NZ-66, 24 hours prior to treatment with increasing concentrations of mitochondrial uncouplers to cause mitochondrial insult. SH-SY5Y mitochondria were treated with DMSO, 3 μM CCCP, 10 μM CCCP, 0.1/0.1 μM antimycin/oligomycin (AO), 0.5/0.5 µM AO or 1/1 μM AO. […]

Mfn2 = assay: Western blot, Mfn2 degradation in MEF WT; type: cell-based, mouse; conditions: with ULKTAC; cells not given
Description: FIG. 6. ULKTACs rely on ULK1 for the redirection of autophagy components to mitochondria and subsequent mitophagic degradation (A) Western blot of mouse embryonic fibroblasts (MEF) WT and MEF ULK1/2^−/− treated with 1 mM ULKTACs, 5 mM CCCP or both and probed for ULK1, Mfn2 and Actin—quantification of the relative intensity of Mfn2 shown in (B), normalised to Actin. Representative immunofluorescence of MEF WT (C) and MEF ULK1/2^−/− (D) treated with 5 mM CCCP, 1 mM ULKTACs or both and immunostained for Alexa 488 ATP5a and Alexa 647 LC3B. Quantification of the colocalised LC3 to ATP5a spot area shown in WT vs ULK1/2^−/− treated MEF cells shown in (E). Data shown are mean±SEM, n=3, *p<0.05, ** p<0.01, *** p<0.001, Two-way ANOVA with Tukey's multiple comparisons test.
Cells were homogenised in protein lysis buffer consisting of 0.1 M Tris pH 8.0, 0.1 M NaCl, 5% glycerol, IGEPAL® CA-630 (#18896. Sigma-Aldrich) and 5 mM EDTA, 0.1 M N-ethyl maleimide (ThermoFisher, #23030) and protease inhibitor (Cell Signalling Technologies, #5871). Protein concentrations were determined using the BCA assay to ensure equal loading. […] The membranes were immunoblotted with primary antibodies, overnight at 4° C. ULK1 (D8H5) Rabbit mAb (#0854) [1:1000], Phospho-ULK1 (Ser 317) Rabbit antibody (#37762) [1:1000], LC3B Rabbit antibody (#2775) [1:1000], TOM20 (D8T4N) Rabbit mAb (#42406) [1:1000] and, Phospho-Ubiquitin (Ser 65) (E2J6T) Rabbit mAb (#62082) [1:500] were obtained from Cell Signalling Technologies. Recombinant Anti-Vinculin Rabbit antibody (EPR8185) (#ab129002) [1:5000] and Anti-Mitofusin2 mouse antibody (6A8) (#ab56889) [1:1000] were purchased from Abcam. Anti-Actin mouse monoclonal antibody (#A1978) [1:1000] and Anti-rabbit p62/SQSTM1 (#P0067) [1:1000], were purchased from Sigma-Aldrich. Mono- and polyubiquitinylated conjugates monoclonal antibody (FK2) (BML-PW8810-0100) [1:500] was purchased from Enzo Life Sciences. Anti BRD4 (E2A7X) rabbit monoclonal antibody (#13440), Anti c-MYC (D84C12) rabbit monoclonal antibody (#5605) [1:1000], Anti GAPDH (D4C6R) mouse monoclonal antibody (#97166) [1:1000], Anti Max (S20) rabbit monoclonal antibody (#4739) [1:1000] were purchased from Cell Signalling Technologies. Anti Phospho-CHK1 (Ser 345) rabbit monoclonal antibody (#2341) [1:1000], Anti gamma-H2AX (Ser 139) rabbit monoclonal antibody (#2577) [1:1000] were obtained from Cell Signalling Technologies, Anti RPA32/RPA2 (phospho S4/S8) rabbit monoclonal antibody (ab87277) [1:1000] were obtained from Abcam.
Membranes were then incubated with horseradish peroxidase (HRP)-conjugated secondary antibodies (Rabbit #7074 and Mouse #7076) purchased from Cell Signalling Technologies for 1 hour and the HRP signal was detected using EZ-ECL Enhanced Chemiluminescence Detection Kit for HRP (#20-500-500, Sartorius), and imaged with an Alliance Q9 Advanced (UVITec). Where required, membranes were stripped with mild stripping buffer consisting of 0.2 M glycine, 3.47 mM SDS, 1% Tween 20, pH 2.2, blocked for 1 hour with TBS-T+3% BSA and re-probed with primary antibodies.
Therefore, we conclude that NZ-65 and NZ-66 are novel ULKTAC molecules that initiate the recruitment of ULK1 to mitochondria, leading to an increase in local ULK1 activity, the formation of an autophagosome and mitophagy.

ULK1 = molecular target: T1, ULK1 (Homo sapiens, UniProt O75385); assay: ULK1/TOM20 co-localisation immunofluorescence in PANC-1 cells; type: cell-based; design: pSer317 blot or TOM20 co-localisation; conditions: PANC-1, 18 hours, alone
T1 sequence (O75385 1-1050): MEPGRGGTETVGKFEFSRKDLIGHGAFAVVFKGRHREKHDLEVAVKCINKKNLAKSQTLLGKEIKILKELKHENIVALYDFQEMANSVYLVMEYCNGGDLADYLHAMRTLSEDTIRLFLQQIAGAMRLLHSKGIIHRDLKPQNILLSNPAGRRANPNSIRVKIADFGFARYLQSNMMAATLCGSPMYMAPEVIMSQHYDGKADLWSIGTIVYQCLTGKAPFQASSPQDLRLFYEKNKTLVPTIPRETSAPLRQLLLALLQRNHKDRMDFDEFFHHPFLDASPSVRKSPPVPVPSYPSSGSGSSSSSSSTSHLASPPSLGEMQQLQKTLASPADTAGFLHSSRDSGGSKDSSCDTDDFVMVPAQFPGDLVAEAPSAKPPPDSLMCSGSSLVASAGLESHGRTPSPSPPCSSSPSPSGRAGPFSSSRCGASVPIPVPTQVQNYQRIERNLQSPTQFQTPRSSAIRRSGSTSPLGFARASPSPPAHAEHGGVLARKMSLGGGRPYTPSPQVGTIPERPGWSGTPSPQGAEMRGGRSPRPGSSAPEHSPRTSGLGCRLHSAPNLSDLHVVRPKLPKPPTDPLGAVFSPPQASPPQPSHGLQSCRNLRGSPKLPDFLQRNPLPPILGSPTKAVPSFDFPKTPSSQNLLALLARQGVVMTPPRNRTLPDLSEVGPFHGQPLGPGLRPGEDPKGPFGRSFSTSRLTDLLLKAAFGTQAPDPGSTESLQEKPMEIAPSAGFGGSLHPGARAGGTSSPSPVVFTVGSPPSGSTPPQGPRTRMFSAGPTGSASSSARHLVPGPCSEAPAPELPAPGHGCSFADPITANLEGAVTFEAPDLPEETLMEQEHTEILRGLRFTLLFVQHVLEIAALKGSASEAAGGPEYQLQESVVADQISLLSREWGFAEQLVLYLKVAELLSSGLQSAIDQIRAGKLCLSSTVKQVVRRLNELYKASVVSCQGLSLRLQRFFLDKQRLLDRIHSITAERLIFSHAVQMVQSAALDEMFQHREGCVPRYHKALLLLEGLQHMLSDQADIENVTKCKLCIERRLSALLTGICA
Description: as §1
For TOM20/ULK1 immunofluorescence, cells were seeded in a 384 well PerkinElmer CellCarrier Ultra plate 24 hours prior to treatment with compounds. Cells were treated for 18 hours after which they were fixed with 4% paraformaldehyde (PFA) in phosphate buffered saline (PBS) and blocked with 10% FBS and 0.1% Triton in PBS. Plates were incubated at 4° C. overnight, with 1:400 mouse anti-TOM20 (Santa Cruz, #sc-17764) and 1:400 rabbit anti-ULK1 (Cell Signalling Technologies, #0854). The following day, plates were incubated with 1:1000 goat anti-mouse Alexa 488 (ThermoFisher Scientific, #A-11029), 1:1000 goat anti-rabbit Alexa 568 (ThermoFisher Scientific, #A-11011) and 1.62 μM Hoechst 33342 at room temperature for 1 hour before imaging. For ATP5a/LC3 immunofluorescence, cells were fixed with ice-cold 1:1 MeOH: acetone and blocked with 3% BSA (Sigma-Aldrich, #A3803) in Dulbecco's PBS (D-PBS). Plates were incubated overnight at 4° C. with 1:400 LC3B (D11) XP Rabbit mAb Alexa Fluor 647 Conjugate (Cell Signalling Technologies, #65299) and 1:400 ATP5a (Cell Signalling Technologies, #18023) lightning-linked to Alexa Fluor 488. The following day, plates were incubated with 1.62 […] at room temperature for 1 hour before imaging. Excitation and emission spectra for each channel are as follows: Hoechst 33342=405/435-480 nm, Alexa 488=488/500-550 nm and Alexa 568=561/570-630 nm. Images were acquired at 40× and 63× magnification with water immersion lens.
To understand the temporal kinetics of NZ-65 and NZ-66, we assessed the recruitment of ULK1 to mitochondria, using co-localisation of ULK1 and TOM20 by immunofluorescence. […] After showing the co-localisation of ULK1 to the outer mitochondrial membrane (OMM) after ULKTAC treatment, we wanted to determine whether the ULKTACs induced mitophagy. To do this, we measured changes in Mfn2 under basal conditions and co-treatment with CCCP (FIG. 5C, D).

N#CC(C#N)=NNc1cccc(Cl)c1 [CCCP, reference compound]
induction of mitophagy (SH-SY5Y cells): induction of mitophagy

COc1ccc(Nc2ncc(C(F)(F)F)c(NC3CC3)n2)cc1OC [SBP-7455, reference compound]
ULKTAC mediated degradation of Mfn2 in presence of dual ULK1/2 inhibitor (Mfn2): additionally demonstrating the requirement for ULK1 for ULKTAC mediated degradation of Mfn2

NC(=O)C(=O)c1c(-c2ccccc2)[nH]c2ccccc12 [TSPO ligand, reference compound]
co-localisation of ULK1 and TOM20 (ULK1): neither BL-918 nor the TSPO ligand alone induce co-localisation
